Test results: US20220211691A1, “TREATMENT OF DRY EYE DISEASE” (Aldeyra Therapeutics, Inc., priority 2021, published 2022)

Key:
Format in all cases: in vivo, human
[1] = system: subjects with dry eye disease; assay: CAE clinical study, initial cohort, Day 1 dry eye assessments; details: N = 12; for Schirmer's Test, Change From Baseline: Day 1, after a single dose, vehicle +1.3, P-Value 0.30; for OD4S: Dryness (0-5), Change From Baseline / OD4S: Grittiness (0-5), Change From Baseline: vehicle +0.1, P-Value 0.006; for OD4S: Discomfort (0-5), Change From Baseline / VAS Dryness (0-100), Change From Baseline: P-Value 0.003; for VAS Dryness (0-100), Change From Baseline: vehicle +2
Description: The objective of the study is to evaluate the efficacy of reproxalap, as assessed by tear reactive aldehyde species (RASP) levels, after single and multiple doses in subjects with dry eye disease. The efficacy of reproxalap will also be assessed by tear RASP levels, conjunctival redness, Schirmer's Test, and dry eye symptoms after dosing immediately prior to and during exposure to the Controlled Adverse Environment (CAE®) over 2 hours, in subjects with dry eye disease. CAE® chambers allow standardization of variables, such as temperature, humidity, airflow, and visual tasking (see Calonge et al., Current Eye Res., 2018, 43(4):445-450; see also Ousler, III et al., Ophthalmol Ther., 2017, 6(2): 263-276) Dosage/Dose Regimen. A Reproxalap solution (0.25% w/v or 0.1% w/v) is administered topically to both eyes. The control is a Vehicle Control Solution. The test article is administered QID on Day 1 (Visit 2). On Day 2 (Visit 3), test article is administered once 2 or 5 minutes immediately prior to the CAE®, once 45 minutes after initiation of the CAE®, and once at CAE® exit. The primary endpoint is the change in levels of reactive aldehyde species (RASP) in tears. Secondary endpoints include the following: • Visual analog scale eye dryness score assessed over 90 minutes in CAE®. • Ora Calibra Ocular Discomfort Scale assessed over 90 minutes in CAE®. • Conjunctival redness assessed at over 90 minutes via digital photography in the CAE® (Key Secondary Sign Endpoint). • Schirmer's Test assessed 10 minutes after dosing. • Post-CAE® RASP change from baseline. General Statistical Methods and Types of Analyses. The primary endpoint and secondary endpoints of Schirmer's Test and post-CAE® RASP is assessed via analysis of covariance (ANCOVA), with baseline score as a covariate. Initial Cohort of the trial will enroll twenty subject who meet the inclusion criteria. The Initial Cohort phase will be limited to Visit 1 (Screening), Visit 2 (Day 1), and Visit 3 (Day 2). At Day 1, evaluations include Dry Eye symptoms, Schirmer's test, and tear RASP levels. At Day 2 (Chamber test), evaluations include Dry Eye symptoms, Ocular Redness, and tear RASP levels. • Day 1 Schirmer's Test results is based on improvement after a single dose; all other Day 1 assessments were performed over 24 hours of QID dosing.

[2] = system: subjects with dry eye disease; assay: CAE clinical study, initial cohort, Day 2 dry eye chamber
Description: The objective of the study is to evaluate the efficacy of reproxalap, as assessed by tear reactive aldehyde species (RASP) levels, after single and multiple doses in subjects with dry eye disease. The efficacy of reproxalap will also be assessed by tear RASP levels, conjunctival redness, Schirmer's Test, and dry eye symptoms after dosing immediately prior to and during exposure to the Controlled Adverse Environment (CAE®) over 2 hours, in subjects with dry eye disease. CAE® chambers allow standardization of variables, such as temperature, humidity, airflow, and visual tasking (see Calonge et al., Current Eye Res., 2018, 43(4):445-450; see also Ousler, III et al., Ophthalmol Ther., 2017, 6(2): 263-276) Dosage/Dose Regimen. A Reproxalap solution (0.25% w/v or 0.1% w/v) is administered topically to both eyes. The control is a Vehicle Control Solution. The test article is administered QID on Day 1 (Visit 2). On Day 2 (Visit 3), test article is administered once 2 or 5 minutes immediately prior to the CAE®, once 45 minutes after initiation of the CAE®, and once at CAE® exit. The primary endpoint is the change in levels of reactive aldehyde species (RASP) in tears. Secondary endpoints include the following: • Visual analog scale eye dryness score assessed over 90 minutes in CAE®. • Ora Calibra Ocular Discomfort Scale assessed over 90 minutes in CAE®. • Conjunctival redness assessed at over 90 minutes via digital photography in the CAE® (Key Secondary Sign Endpoint). • Schirmer's Test assessed 10 minutes after dosing. • Post-CAE® RASP change from baseline. Secondary endpoints of conjunctival redness and symptoms in the CAE® is assessed via mixed effect model for repeated measures (MMRM), with baseline score as a covariate, and time and test article group as factors. In one of the CAE® studies, one dose is given 2 min prior to chamber entry. Another dose is administered 45 min after chamber entry. In some instances, subjects receive one day prior to chamber entry. Thus, some subjects receive: one dose on day prior to, one dose immediately before, and one dose 45 min after entry into a 90 min dry eye chamber with minimal humidity, high airflow, and forced visual tasking. In some instances, the subjects are given a dose at exit of the CAE®.

[3] = system: malondialdehyde (MDA) adducts in tears; assay: MDA adduct competitive ELISA of tears, Phase 2a clinical study; details: 28 days / 4-week treatment, all treatment groups pooled
Text: The study was to assess levels of malondialdehyde (MDA) adducts in tears collected from subjects with dry eye disease enrolled in a Phase 2a, randomized, double-masked, clinical study to assess the safety, tolerability, and pharmacodynamic activity of ADX-102 ophthalmic solution in subjects with dry eye diseases, also referred to herein as dry eye syndrome (DES).
Tears were collected during Visit 1, prior to treatment, and during Visit 3, following four weeks of treatment. Treatment groups consisted of ADX-102 Ophthalmic Solution (0.5%), ADX-102 Ophthalmic Solution (0.1%), and ADX-102 Ophthalmic Lipid Solution (0.5%). […]
The assay is a competitive ELISA. […] The plate is read in a microplate reader at 450 nm. The assay OD reading decreases with increasing MDA adducts in the samples, as the adsorbed MDA competes for binding to the MDA antibody with MDA adducts in the test sample. […]
DES Study Samples. Based on the results of the pilot assay, a 1:60 dilution was determined to maximize the likelihood of the OD values falling within the linear portion of the standard curve, and thus provide the most accurate results. All tear samples from subjects (0.5% ADX-102 Ophthalmic Solution) and (0.1% ADX-102 Ophthalmic Solution) were analyzed, but results from some tear samples were excluded from the data analysis due to contamination with ocular staining dye in the Visit 3 samples. […]

[4] = Safety of topical ocular reproxalap across clinical trials
Description: • Day 1 Schirmer's Test results is based on improvement after a single dose; all other Day 1 assessments were performed over 24 hours of QID dosing.

[5] = Day 1, over 24 hours of QID dosing
[6] = Day 1, over 24 hours of QID dosing, listed as reproxalap

For `CC(C)(O)c1nc2ccc(Cl)cc2cc1N` [Reproxalap, reproxalap], the “Schirmer's Test, Change From Baseline” value [1] was “+3.4 mm”, the “Schirmer's Test, Change From Baseline” value ([1]; listed as reproxalap) was “directionally in favor of reproxalap over vehicle” and the “OD4S: Dryness (0-5), Change From Baseline” value [1, 5] was −1.2. The “OD4S: Grittiness (0-5), Change From Baseline” value [1, 5] was −1.1, the “OD4S: Dryness (0-5), Change From Baseline” value [1, 6] was “statistically superior to vehicle” and the “OD4S: Grittiness (0-5), Change From Baseline” value [1, 6] was “statistically superior to vehicle”. For the same compound, the “OD4S: Discomfort (0-5), Change From Baseline” value ([1]; Day 1, over 24 hours of QID dosing, vehicle +0.4) was −0.7, the “OD4S: Discomfort (0-5), Change From Baseline” value ([1]; Day 1, over 24 hours of QID dosing, vehicle +0.4, listed as reproxalap) was “statistically superior to vehicle” and the “Ocular Discomfort Scale (0-4), Change From Baseline” value ([1]; Day 1, over 24 hours of QID dosing, vehicle +0.4, P-Value 0.07) was −0.7. For the same compound, the “OD4S: Sting (0-5), Change From Baseline” value ([1]; Day 1, over 24 hours of QID dosing, vehicle +0.4, P-Value 0.23) was −0.1, the “OD4S: Burn (0-5), Change From Baseline” value ([1]; Day 1, over 24 hours of QID dosing, vehicle +0.8, P-Value 0.07) was −0.1 and the “VAS Dryness (0-100), Change From Baseline” value [1, 5] was −26. The “VAS Dryness (0-100), Change From Baseline” value [1, 6] was “statistically superior to vehicle”, the “ocular redness versus vehicle” value ([2]; Day 2, dry eye chamber, p=0.03) was “statistically significant improvement over vehicle” and the “ocular discomfort score versus vehicle” value ([2]; Day 2, over all time points in aggregate in the dry eye chamber, p<0.0001) was “statistically superior to vehicle”. The “visual analog scale (VAS) ocular dryness versus vehicle” value ([2]; Day 2, over all time points in aggregate in the dry eye chamber, p=0.001) was “statistically superior to vehicle”, the “time to improvement in ocular symptoms and redness following dosing” value ([2]; dry eye chamber) was “within minutes” and the “tear MDA adduct level after treatment relative to baseline, pooled groups” value [3] was “statistically lower”. For the same compound, the “most commonly reported adverse event in clinical trials” value ([4]; human, in vivo) was “mild instillation site irritation” and the “safety in clinical trials” value ([4]; studied in over 1,100 patients) was “no observed safety concerns”.
